Where two headings read alike, the source gives them in different places. Values belong to the compound of their own block, whether it stands above or below them.
What was measured:
Type in all cases: biochemical
[1] = molecular target: T1, MGLL (Mus musculus, UniProt O35678); test: In vitro competitive activity-based protein profiling, mouse brain proteome
T1 construct: Brain; from tissue; host or cells: mouse brain proteome
T1 sequence (O35678 1-303): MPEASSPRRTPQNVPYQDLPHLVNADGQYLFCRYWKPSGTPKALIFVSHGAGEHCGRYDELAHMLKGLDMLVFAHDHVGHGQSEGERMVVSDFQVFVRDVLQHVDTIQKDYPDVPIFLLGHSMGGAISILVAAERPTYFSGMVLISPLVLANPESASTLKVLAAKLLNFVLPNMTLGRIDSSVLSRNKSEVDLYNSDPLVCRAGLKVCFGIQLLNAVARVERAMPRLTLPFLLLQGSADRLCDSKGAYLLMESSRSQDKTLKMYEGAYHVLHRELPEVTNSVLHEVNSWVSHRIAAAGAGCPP
Protocol: [Worded in the source for another species; this species is reported under the same test.] (§1) Proteomes (human prefrontal cortex or cell membrane fractions) (50 μL, 1.0 mg/mL total protein concentration) were preincubated with varying concentrations of inhibitors at 37° C. After 30 min, FP—Rh or HT-01 (1.0 μL, 50 μM in DMSO) was added and the mixture was incubated for another 30 min at room temperature. Reactions were quenched with SDS loading buffer (15 μL-4×) and run on SDS-PAGE.

[2] = molecular target: T2, ABHD6 (Mus musculus, UniProt Q8R2Y0); test: In vitro competitive activity-based protein profiling, mouse brain proteome, ABHD6; conditions: mouse
T2 construct: Brain; from tissue; host or cells: mouse brain proteome
T2 sequence (Q8R2Y0 1-336): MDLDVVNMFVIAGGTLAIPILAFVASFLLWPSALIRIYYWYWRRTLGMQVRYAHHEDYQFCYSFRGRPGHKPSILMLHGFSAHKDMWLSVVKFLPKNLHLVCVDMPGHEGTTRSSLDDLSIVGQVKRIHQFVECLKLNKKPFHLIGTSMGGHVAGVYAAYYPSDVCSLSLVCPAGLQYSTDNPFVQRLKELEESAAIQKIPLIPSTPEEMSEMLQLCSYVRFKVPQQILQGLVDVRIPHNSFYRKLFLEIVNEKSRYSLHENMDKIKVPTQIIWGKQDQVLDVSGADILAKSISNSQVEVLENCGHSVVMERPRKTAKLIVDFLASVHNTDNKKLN
Protocol: [Worded in the source for another target; this target is reported under the same test.] as §1

[3] = molecular target: T3, MAGL (Homo sapiens, UniProt Q99685); test: In vitro competitive activity-based protein profiling (gel-based, FP-Rh or HT-01 probe)
T3 construct: Proteomes (human prefrontal cortex or cell membrane fractions); from tissue
T3 sequence (Q99685 1-303): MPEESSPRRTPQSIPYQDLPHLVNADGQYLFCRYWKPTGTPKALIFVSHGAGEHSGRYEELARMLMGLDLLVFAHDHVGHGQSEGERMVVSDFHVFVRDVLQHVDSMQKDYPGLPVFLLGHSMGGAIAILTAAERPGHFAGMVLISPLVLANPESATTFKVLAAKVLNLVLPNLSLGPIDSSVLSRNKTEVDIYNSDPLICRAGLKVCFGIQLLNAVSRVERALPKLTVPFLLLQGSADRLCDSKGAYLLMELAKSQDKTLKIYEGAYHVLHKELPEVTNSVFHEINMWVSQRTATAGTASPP
Protocol: Compounds are tested to assess their MAGL and serine hydrolase activity using the following in vitro and in vivo assays.
as §1

[4] = PC3 proteome, read-out: IC50 MGLL PC3 (Human)
[5] = PFC (prefrontal cortex) proteome

- IC50 [1]: < 0.1 µM
- IC50 [2]: 0.1 to 1 µM
Structure (SMILES): O=C(OC(C(F)(F)F)C(F)(F)F)N1CCC2(CCCN2C(=O)c2ccc(Cl)cc2)CC1 [Example 13, 1,1,1,3,3,3-Hexafluoropropan-2-yl 1-(4-chlorobenzoyl)-1,8-diazaspiro[4.5]decane-8-carboxylate]

- IC50 [1]: < 0.1 µM
- IC50 [2]: 0.1 to 1 µM
Structure (SMILES): CC(=O)N1CCCc2cccc(CN3CC4(CCN(C(=O)OC(C(F)(F)F)C(F)(F)F)CC4)C3)c21 [Example 15, 1,1,1,3,3,3-Hexafluoropropan-2-yl 2-((1-acetyl-1,2,3,4-tetrahydroquinolin-8-yl)methyl)-2,7-diazaspiro[3.5]nonane-7-carboxylate]

- IC50 [1]: < 0.1 µM
- IC50 [2]: 0.1 to 1 µM
Structure (SMILES): CCN1CCCc2cccc(CN3CC4(CCN(C(=O)OC(C(F)(F)F)C(F)(F)F)CC4)C3)c21 [Example 16, 1,1,1,3,3,3-Hexafluoropropan-2-yl 2-((1-ethyl-1,2,3,4-tetrahydroquinolin-8-yl)methyl)-2,7-diazaspiro[3.5]nonane-7-carboxylate]

- IC50 [1]: > 1 µM
- IC50 [2]: 0.1 to 1 µM
Structure (SMILES): CCN1CCCc2cccc(CN3CCC4(CC3)CN(C(=O)OC(C(F)(F)F)C(F)(F)F)C4)c21 [Example 31, 1,1,1,3,3,3-Hexafluoropropan-2-yl 7-((1-ethyl-1,2,3,4-tetrahydroquinolin-8-yl)methyl)-2,7-diazaspiro[3.5]nonane-2-carboxylate]

- IC50 [3, 4]: < 0.1 µM
Structure (SMILES): O=C(OC(C(F)(F)F)C(F)(F)F)N1CCC2(CC1)CCN(C(=O)c1ccc(C(F)(F)F)cc1Cl)C2 [Example 119, 1,1,1,3,3,3-Hexafluoropropan-2-yl 2-(2-chloro-4-(trifluoromethyl)benzoyl)-2,8-diazaspiro[4.5]decane-8-carboxylate]

- IC50 [3, 4]: < 0.1 µM
Structure (SMILES): O=C(O)C1CCCCN1c1cc(CN2CC3(CCN(C(=O)OC(C(F)(F)F)C(F)(F)F)CC3)C2)cc(C(F)(F)F)c1 (centres unmarked) [Example 120, 1-(3-((7-(((1,1,1,3,3,3-Hexafluoropropan-2-yl)oxy)carbonyl)-2,7-diazaspiro[3.5]nonan-2-yl)methyl)-5-(trifluoromethyl)phenyl)piperidine-2-carboxylic acid]

- IC50 [3, 4]: < 0.1 µM
Structure (SMILES): CC1(C(=O)O)CCN(c2cc(CN3CC4(CCN(C(=O)OC(C(F)(F)F)C(F)(F)F)CC4)C3)cc(C(F)(F)F)c2)C1 (centres unmarked) [Example 121, 1-(3-((7-(((1,1,1,3,3,3-Hexafluoropropan-2-yl)oxy)carbonyl)-2,7-diazaspiro[3.5]nonan-2-yl)methyl)-5-(trifluoromethyl)phenyl)-3-methylpyrrolidine-3-carboxylic acid]

- IC50 [3, 4]: < 0.1 µM
Structure (SMILES): O=C(O)C1CCN(c2cc(Cl)ccc2CN2CC3(CCN(C(=O)OC(C(F)(F)F)C(F)(F)F)CC3)C2)CC1 [Example 122, 1-(5-Chloro-2-((7-(((1,1,1,3,3,3-hexafluoropropan-2-yl)oxy)carbonyl)-2,7-diazaspiro[3.5]nonan-2-yl)methyl)phenyl) piperidine-4-carboxylic acid]

- IC50 [3, 4]: 0.1 to 1 µM
Structure (SMILES): O=C(O)C1CCN(c2cc(F)ccc2CN2CC3(CCN(C(=O)OC(C(F)(F)F)C(F)(F)F)CC3)C2)CC1 [Example 123, 1-(5-Fluoro-2-((7-(((1,1,1,3,3,3-hexafluoropropan-2-yl)oxy)carbonyl)-2,7-diazaspiro[3.5]nonan-2-yl)methyl)phenyl) piperidine-4-carboxylic acid]

- IC50 [3, 4]: 0.1 to 1 µM
Structure (SMILES): O=C(O)c1ccc(CN2CC3(CCN(C(=O)OC(C(F)(F)F)C(F)(F)F)CC3)C2)cc1C(F)(F)F [Example 131, 4-((7-(((1,1,1,3,3,3-Hexafluoropropan-2-yl)oxy)carbonyl)-2,7-diazaspiro[3.5]nonan-2-yl)methyl)-2-(trifluoromethyl) benzoic acid]

- % Inh MGLL PFC (Human, μM) [3, 5]: ### (### is ≥ 75%)
Structure (SMILES): CN(Cc1ccc(Cl)cc1N1CCC(C(=O)O)CC1)C1(C)CCN(C(=O)OC(C(F)(F)F)C(F)(F)F)CC1 [Example 135, 1-(5-Chloro-2-(((1-(((1,1,1,3,3,3-hexafluoropropan-2-yl)oxy)carbonyl)-4-methylpiperidin-4-yl)(methyl)amino)methyl)phenyl) piperidine-4-carboxylic acid]

- IC50 [3, 4]: < 0.1 µM
- % Inh MGLL PFC (Human, μM) [3, 5]: ### (### is ≥ 75%)
Structure (SMILES): CN(Cc1ccc(C(F)(F)F)cc1OCC(=O)O)C1(C)CCN(C(=O)OC(C(F)(F)F)C(F)(F)F)CC1 [Example 136, 2-(2-(((1-(((1,1,1,3,3,3-Hexafluoropropan-2-yl)oxy)carbonyl)-4-methylpiperidin-4-yl)(methyl)amino)methyl)-5-(trifluoromethyl)phenoxy)acetic acid]

- % Inh MGLL PFC (Human, μM) [3, 5]: ### (### is ≥ 75%)
- IC50 ([3]; PFC (prefrontal cortex) proteome, read-out: IC50 MGLL PFC (Human)): < 0.1 µM
Structure (SMILES): CN(Cc1cc(C(F)(F)F)cc(C2(C(=O)O)CCCC2)c1)C1(C)CCN(C(=O)OC(C(F)(F)F)C(F)(F)F)CC1 [Example 138, 1-(3-{[(1-{[(1,1,1,3,3,3-Hexafluoropropan-2-yl)oxy]carbonyl}-4-methylpiperidin-4-yl)(methyl)amino]methyl}-5-(trifluoromethyl)phenyl)cyclopentane-1-carboxylic acid]

- IC50 [3, 4]: < 0.1 µM
Structure (SMILES): CC(C)(C#Cc1cc(CN2CCCC23CCN(C(=O)OC(C(F)(F)F)C(F)(F)F)CC3)cc(C(F)(F)F)c1)C(=O)O [Example 140, 4-{3-[(8-{[(1,1,1,3,3,3-Hexafluoropropan-2-yl)oxy]carbonyl}-1,8-dazaspiro[4.5]decan-1-yl)methyl]-5-(trifluoromethyl)phenyl]-2,2-dimethylbut-3-ynoic acid]

- IC50 [3, 4]: < 0.1 µM
- % Inh MGLL PFC (Human, μM) [3, 5]: ### (### is ≥ 75%)
Structure (SMILES): CN(Cc1cccc(F)c1C1(C(=O)O)CCCC1)C1(C)CCN(C(=O)OC(C(F)(F)F)C(F)(F)F)CC1 [Example 144, 1-(2-Fluoro-6-{[(1-{[(1,1,1,3,3,3-hexafluoropropan-2-yl)oxy]carbonyl}-4-methylpiperidin-4-yl)(methyl)amino]methyl}phenyl) cyclopentane-1-carboxylic acid]

- IC50 [3, 4]: 0.1 to 1 µM
- % Inh MGLL PFC (Human, μM) [3, 5]: ### (### is ≥ 75%)
Structure (SMILES): CC(C)(C#Cc1ccccc1CN1CCCC12CCN(C(=O)OC(C(F)(F)F)C(F)(F)F)CC2)C(=O)O [Example 145, 4-{2-[(8-{[(1,1,1,3,3,3-Hexafluoropropan-2-yl)oxy]carbonyl}-1,8-diazaspiro[4.5]decan-1-yl)methyl]phenyl]-2,2-dimethylbut-3-ynoic acid]

- IC50 [3, 4]: < 0.1 µM
- % Inh MGLL PFC (Human, μM) [3, 5]: ### (### is ≥ 75%)
Structure (SMILES): CC1(OCc2ccc(Cl)cc2C2(C(=O)O)CCCC2)CCN(C(=O)OC(C(F)(F)F)C(F)(F)F)CC1 [Example 146, 1-(5-Chloro-2-{[(1-{[(1,1,1,3,3,3-hexafluoropropan-2-yl)oxy]carbonyl}-4-methylpiperidin-4-yl)oxy]methyl}phenyl) cyclopentane-1-carboxylic acid]

- % Inh MGLL Brain (Mouse, μM) [1]: ### (### is ≥ 75%)
- % Inh MGLL PC3 (Human, μM) ([3]; PC3 proteome): ### (### is ≥ 75%)
Structure (SMILES): CN(Cc1ccc(C(F)(F)F)cc1N1CCC(N2CCC[C@H]2C(=O)O)CC1)C1(C)CCN(C(=O)OC(C(F)(F)F)C(F)(F)F)CC1 [Example 163, (1-(2-(((1-(((1,1,1,3,3,3-Hexafluoropropan-2-yl)oxy)carbonyl)-4-methylpiperidin-4-yl)(methyl)amino)methyl)-5-(trifluoromethyl)phenyl)piperidin-4-yl)-L-proline]

- IC50 [3, 4]: < 0.1 µM
Structure (SMILES): O=C(O)C1CCN(c2cc(CN3CCC4(CC3)CCN(C(=O)OC(C(F)(F)F)C(F)(F)F)C4)ccc2C(F)(F)F)CC1 [Example 221]

- IC50 [3, 4]: 0.1 to 1 µM
Structure (SMILES): O=C(O)C1CCN(c2cc(S(F)(F)(F)(F)F)ccc2CN2CCC3(CC2)CCN(C(=O)OC(C(F)(F)F)C(F)(F)F)C3)CC1 [Example 222, 1-(2-((2-(((1,1,1,3,3,3-Hexafluoropropan-2-yl)oxy)carbonyl)-2,8-diazaspiro[4.5]decan-8-yl)methyl)-5-(pentafluoro-l6-sulfaneyl)phenyl) piperidine-4-carboxylic acid]

- IC50 [3, 4]: < 0.1 µM
Structure (SMILES): O=C(O)C1CCN(c2cc(CN3CCC4(CC3)CCN(C(=O)OC(C(F)(F)F)C(F)(F)F)C4)cc(S(F)(F)(F)(F)F)c2)CC1 [Example 226, 1-(3-((2-(((1,1,1,3,3,3-Hexafluoropropan-2-yl)oxy)carbonyl)-2,8-diazaspiro[4.5]decan-8-yl)methyl)-5-(pentafluoro-l6-sulfaneyl)phenyl) piperidine-4-carboxylic acid]

- IC50 [3, 4]: < 0.1 µM
Structure (SMILES): CC1(OCc2cc(N3CCC(C(=O)O)CC3)cc(C(F)(F)F)c2)CCN(C(=O)OC(C(F)(F)F)C(F)(F)F)CC1 [Example 227]
